Results as given in patent US11219898B2, “Molecular separation by diffusion using an EWOD device” (Sharp Life Science (EU) Limited, priority 2019, dated 2022).

Assay: Diffusion of fluorescein or calcein through a droplet interface bilayer in an AM-EWOD device
Type: physicochemical
Procedure: An investigation of the transport of aqueous phase elements between droplets suspended in a non-aqueous supporting medium is conducted. Phospholipid stabilized water in oil droplets are dispensed within an AM-EWOD device. Such droplets are used to produce droplet interface bilayers (DIBs) by the bringing together of individual droplets within the AM-EWOD device. DIBs are used to study diffusion of a solute across the bilayer membrane, as well as to study active transport through pores or ion channels formed in the DIB. In a first experiment, diffusion of fluorescein or calcein through a bilayer is investigated. Under conditions of neutral pH, calcein, a derivative of fluorescein, is generally more polar than fluorescein. […] Thus, fluorescein may more readily diffuse through a bilayer, whereas calcein may not. Three populations of droplets are dispensed within an AM-EWOD device. A first population contains buffer, a second population contains fluorescein at 100 μM concentration, and a third population contains calcein at 100 μM concentration. Droplets containing buffer are brought into contact respectively with droplets containing fluorescein or calcein, under control of the AM-EWOD device. Fluorescence intensity is determined at time t0, t1 (30 minutes) and t2 (60 minutes), with excitation wavelength 494 nm and emission wavelength 515 nm.

O=C(O)CN(CC(=O)O)Cc1cc2c(cc1O)Oc1cc(O)c(CN(CC(=O)O)CC(=O)O)cc1C21OC(=O)c2ccccc21 [calcein]
Fluorescence from the buffer containing droplet after DIB formation (after 60 minutes, 100 μM dye droplet, excitation 494 nm, emission 515 nm): no detectable fluorescence | Diffusion across the bilayer (summary of results): not
